Assay results as given in article PMC9668969 (Nature Communications, 2022).
“And” between values parts separate entries of the source, which are not always exact repeats. Equal values may be shown once.

System: WT ELIC
Test: Fluorescence stopped-flow liposomal Tl+ flux assay, symmetric liposomes
Type: biochemical, Erwinia chrysanthemi
Details: for Avg (stopped-flow fluorescence quenching rate): average of experiments; for Rate (stopped-flow fluorescence quenching rate): single experiments
Description: The fluorescence sequential-mixing stopped-flow liposomal flux measurements were carried using an SX20 stopped-flow spectrofluorometer (Applied Photophysics) and Pro-Data SX software[13],[30]. 7.5 mg of the respective lipid mixture (POPC, 1:1 POPC: POPE, 1:1 POPC:POPG, 3:1 POPC:POPE, 3:1 POPC:POPG, 2:1:1 POPC:POPE:POPG) was dried in a glass vial to a thin film under a constant stream of N2. The lipids were then further dried under vacuum in a desiccator overnight. The following day the lipids were hydrated in 500 µl of reconstitution buffer (100 mM NaNO3, 10 mM HEPES, pH 7) (Buffer R), 250 µl of 75 mM 8-Aminonaphthalene-1,3,6-Trisulfonic Acid (ANTS, ThermoFisher Scientific) in buffer R, and doped with ~18 mg of CHAPS (Anatrace). The mixture was vortexed and then sonicated with heat until completely solubilized. Following the sonication, the solution was brought to RT then 3.5 µl of 6.7 mg/ml ELIC in Buffer A with 0.02% DDM was added (3 µg per mg of lipid). This combined solution was incubated at RT for 30 min, followed by the addition of 1 ml of 1:1 v/v SM-2 BioBeads in Buffer R and an additional 250 µl of 75 mM ANTS in Buffer R. This mixture was incubated at RT for 2.5 hr with gentle mixing. The liposome suspension was then extruded with an Avanti mini-extruder and 0.1 µm membrane (30×). The extruded liposomes were stored at 13 °C overnight with gentle rotation. The next day, the liposomes were diluted to 2.5 mL using assay buffer (140 mM NaNO3, 10 mM HEPES, pH 7) (Stopped-flow Buffer A), loaded into a PD-10 desalting column (Cytiva), eluted with 3 mL of Stopped-flow Buffer A and subsequently diluted 5-fold with Stopped-flow Buffer A.
Using propylamine as the agonist, the assay and analysis was carried out as previously described[13],[30]. ELIC-containing liposomes were first mixed 1:1 with Buffer A containing 2× the concentration of propylamine. After a variable delay of 10 ms to 25 s, the sample was then mixed 1:1 with a quenching buffer (90 mM NaNO3, 50 mM TlNO3, 10 mM HEPES, pH 7), and ANTS fluorescence (ex. 360 nm, fluorescence above 420 nm) was recorded for 1 s. For each delay time, 5 repeat measurements were obtained. The data were collected using Applied Photophysics Pro-Data SX software. The fluorescence quenching traces were fit to a stretched exponential (Eq. 2a) and the rate of Tl^+ influx was determined at 2 ms (Eq. 2b).2a Ft=F∞+F0−F∞⋅e^−t/τ^β 2b kt=β/τ⋅2ms/τ^(β−1) where Ft, F∞, F0 are the fluorescence at time t, final fluorescence and initial fluorescence. τ is the time constant, β the stretched exponential factor, and kt the calculated rate of Tl^+ influx at 2 ms. The time course of desensitization was also fit to a double exponential and a weighted time constant was calculated as was done for the patch-clamp data using Origin 2019b. All replicates were taken from independent samples.

[1] = WT in PC liposomes, 0.3 mM PA, delay time 0
[2] = WT in PC liposomes, 1 mM PA, delay time 0

CCCN [propylamine]
Avg (stopped-flow fluorescence quenching rate) (WT in 2:1:1 PC:PE:PG liposomes, 3 mM PA, delay time 5): 145.791 | Avg (stopped-flow fluorescence quenching rate) (WT in 2:1:1 PC:PE:PG liposomes, 3 mM PA, delay time 10): 107.502 | Avg (stopped-flow fluorescence quenching rate) (WT in 2:1:1 PC:PE:PG liposomes, 3 mM PA, delay time 25): 38.6642 | Rate (stopped-flow fluorescence quenching rate) (WT in 2:1:1 PC:PE:PG liposomes, 10 mM PA, delay time 0): 0 | Avg (stopped-flow fluorescence quenching rate) (WT in 2:1:1 PC:PE:PG liposomes, 10 mM PA, delay time 0.025): 169.086 | Avg (stopped-flow fluorescence quenching rate) (WT in 2:1:1 PC:PE:PG liposomes, 10 mM PA, delay time 0.05): 180.798 | Avg (stopped-flow fluorescence quenching rate) (WT in 2:1:1 PC:PE:PG liposomes, 10 mM PA, delay time 0.05 [sic] (between 0.25 and 1)): 198.043 | Rate (stopped-flow fluorescence quenching rate) (WT in 2:1:1 PC:PE:PG liposomes, 10 mM PA, delay time 0.05 [sic] (between 0.25 and 1), listed as PA): 249.635 and 148.719 and 195.774 | Avg (stopped-flow fluorescence quenching rate) (WT in 2:1:1 PC:PE:PG liposomes, 10 mM PA, delay time 0.1): 165.345 | Avg (stopped-flow fluorescence quenching rate) (WT in 2:1:1 PC:PE:PG liposomes, 10 mM PA, delay time 0.25): 213.572 | Rate (stopped-flow fluorescence quenching rate) (WT in 2:1:1 PC:PE:PG liposomes, 10 mM PA, delay time 0.25, listed as PA): 256.17 and 144.253 and 240.291 | Avg (stopped-flow fluorescence quenching rate) (WT in 2:1:1 PC:PE:PG liposomes, 10 mM PA, delay time 1): 169.644 | Rate (stopped-flow fluorescence quenching rate) (WT in 2:1:1 PC:PE:PG liposomes, 10 mM PA, delay time 1, listed as PA): 228.219 and 122.935 and 157.778 | Avg (stopped-flow fluorescence quenching rate) (WT in 2:1:1 PC:PE:PG liposomes, 10 mM PA, delay time 2.5): 155.074 | Avg (stopped-flow fluorescence quenching rate) (WT in 2:1:1 PC:PE:PG liposomes, 10 mM PA, delay time 5): 103.359 | Avg (stopped-flow fluorescence quenching rate) (WT in 2:1:1 PC:PE:PG liposomes, 10 mM PA, delay time 10): 60.9022 | Avg (stopped-flow fluorescence quenching rate) (WT in 2:1:1 PC:PE:PG liposomes, 10 mM PA, delay time 25): 14.6606 | Rate (stopped-flow fluorescence quenching rate) (WT in 2:1:1 PC:PE:PG liposomes, 10 mM PA, delay time 25, listed as PA): 13.7363 and 15.821 and 14.4245 | Rate (stopped-flow fluorescence quenching rate) (WT in 2:1:1 PC:PE:PG liposomes, 30 mM PA, delay time 0): 0 | Avg (stopped-flow fluorescence quenching rate) (WT in 2:1:1 PC:PE:PG liposomes, 30 mM PA, delay time 0.025): 74.8381 | Avg (stopped-flow fluorescence quenching rate) (WT in 2:1:1 PC:PE:PG liposomes, 30 mM PA, delay time 0.05): 63.4545 | Avg (stopped-flow fluorescence quenching rate) (WT in 2:1:1 PC:PE:PG liposomes, 30 mM PA, delay time 0.1): 63.448 | Avg (stopped-flow fluorescence quenching rate) (WT in 2:1:1 PC:PE:PG liposomes, 30 mM PA, delay time 0.25): 66.7765 | Avg (stopped-flow fluorescence quenching rate) (WT in 2:1:1 PC:PE:PG liposomes, 30 mM PA, delay time 0.5): 62.7383 | Avg (stopped-flow fluorescence quenching rate) (WT in 2:1:1 PC:PE:PG liposomes, 30 mM PA, delay time 1): 67.601 | Avg (stopped-flow fluorescence quenching rate) (WT in 2:1:1 PC:PE:PG liposomes, 30 mM PA, delay time 2.5): 40.183 | Avg (stopped-flow fluorescence quenching rate) (WT in 2:1:1 PC:PE:PG liposomes, 30 mM PA, delay time 5): 15.7901 | Avg (stopped-flow fluorescence quenching rate) (WT in 2:1:1 PC:PE:PG liposomes, 30 mM PA, delay time 10): 23.9739 | Avg (stopped-flow fluorescence quenching rate) (WT in 2:1:1 PC:PE:PG liposomes, 30 mM PA, delay time 25): 10.034 | Rate (stopped-flow fluorescence quenching rate) (WT in 2:1:1 PC:PE:PG liposomes, 30 mM PA, delay time 25, listed as PA): 8.132 and 11.9359 | Avg (stopped-flow fluorescence quenching rate) [1]: 0 | Rate (stopped-flow fluorescence quenching rate) [1]: 0 | Avg (stopped-flow fluorescence quenching rate) (WT in PC liposomes, 0.3 mM PA, delay time 0.01): 0.08537 | Rate (stopped-flow fluorescence quenching rate) (WT in PC liposomes, 0.3 mM PA, delay time 0.01, listed as PA): 0.07068 and 0.08871 and 9.67E-02 | Avg (stopped-flow fluorescence quenching rate) (WT in PC liposomes, 0.3 mM PA, delay time 0.025): 0.09939 | Avg (stopped-flow fluorescence quenching rate) (WT in PC liposomes, 0.3 mM PA, delay time 0.05): 0.06401 | Avg (stopped-flow fluorescence quenching rate) (WT in PC liposomes, 0.3 mM PA, delay time 0.1): 0.08141 | Avg (stopped-flow fluorescence quenching rate) (WT in PC liposomes, 0.3 mM PA, delay time 0.25): 0.0402 | Rate (stopped-flow fluorescence quenching rate) (WT in PC liposomes, 0.3 mM PA, delay time 0.25, listed as PA): 0.04925 and 0.03838 and 0.03298 | Avg (stopped-flow fluorescence quenching rate) (WT in PC liposomes, 0.3 mM PA, delay time 0.5): 0.1212 | Rate (stopped-flow fluorescence quenching rate) (WT in PC liposomes, 0.3 mM PA, delay time 0.5, listed as PA): 0.0905 and 0.1754 and 0.09759 | Avg (stopped-flow fluorescence quenching rate) (WT in PC liposomes, 0.3 mM PA, delay time 1): 0.07413 | Avg (stopped-flow fluorescence quenching rate) (WT in PC liposomes, 0.3 mM PA, delay time 2.5): 0.08146 | Rate (stopped-flow fluorescence quenching rate) (WT in PC liposomes, 0.3 mM PA, delay time 2.5, listed as PA): 0.09799 and 0.04957 and 0.09682 | Avg (stopped-flow fluorescence quenching rate) (WT in PC liposomes, 0.3 mM PA, delay time 5): 0.09461 | Avg (stopped-flow fluorescence quenching rate) [2]: 0 | Rate (stopped-flow fluorescence quenching rate) [2]: 0 | Avg (stopped-flow fluorescence quenching rate) (WT in PC liposomes, 1 mM PA, delay time 0.01): 0.0808 | Rate (stopped-flow fluorescence quenching rate) (WT in PC liposomes, 1 mM PA, delay time 0.01, listed as PA): 0.07542 and 0.09146 and 0.07551 | Avg (stopped-flow fluorescence quenching rate) (WT in PC liposomes, 1 mM PA, delay time 0.025): 0.1635 | Avg (stopped-flow fluorescence quenching rate) (WT in PC liposomes, 1 mM PA, delay time 0.05): 0.08808 | Rate (stopped-flow fluorescence quenching rate) (WT in PC liposomes, 1 mM PA, delay time 0.05, listed as PA): 0.09304 and 0.1089 and 0.06236
